From PubChem BioAssay AID1199 (EPA DSSTox, 2008)
Activity calls are given as the source filed them.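 How the source made its calls: active means a tumour-causing dose and a tumour site recorded for mice in at least one sex group; inconclusive means only government mouse studies exist and were judged inadequate; inactive means mouse studies exist but none gave tumours.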

What follows are compounds tested on mouse carcinogenicity bioassay, TD50 from CPDB (assay: DSSTox (CPDBAS) Carcinogenic Potency Database Summary Mouse Bioassay Results). Conditions: not given.
Excerpt: The Carcinogenic Potency Database (CPDB) is a unique and widely used international resource of the results of over 6500 chronic, long-term animal cancer tests on over 1500 chemical substances. The CPDB provides easy access to the bioassay literature, with qualitative and quantitative analyses of both positive and negative experiments that have been published over the past 50 years in the general literature and by the National Cancer Institute/National Toxicology Program. The CPDB standardizes the diverse literature of cancer bioassays that vary widely in protocol, histopathological examination and nomenclature, and in the published author's choices of what information to provide in their papers. Results are reported in the CPDB for tests in rats, mice, hamsters, dogs, and nonhuman primates, and are based on the most positive result among all experiments for each sex-species. The DSSTox CPDBAS (all species) file incorporates data from the CPDB Summary Tables for the full list of over 1500 chemical substances tested in at least one species. Summary bioassay results for Mouse (TD50, tumor sites, male, female, both sexes) are provided in the CPDB Summary Tables and the DSSTox CPDBAS file for over 1000 chemical substances.
TD50 is a standardized quantitative measure of carcinogenic potency (analogous to an LD50) and is reported in the CPDB Summary Table for each species. Activity Score for actives is computed by mapping of LOG10 (1/TD50_Mouse_mmol) activity values spanning range [MIN, MAX] onto Integer 1-100 Activity Score range, where 100 is highest potency and 1 is lowest: Activity Score = 100 * INTEGER[(log10(1/Activity) - MIN)/(MAX […] MIN)]. If activity is reported but no TD50_Mouse_mmol value is computed, such as for a mixture, the Activity Score is assigned the activity value "50". […] Target sites are reported for each sex-species group with a positive result in the CPDB on the basis of a positive author's opinion for the particular site, using all results from both the general literature and NCI/NTP bioassays. If a chemical has two or more target sites listed, the results may be from different experiments, and a single site may be a target organ in more than one experiment, as well. Blank entry in TargetSites field indicates no results reported.

Row | Structure (SMILES) | Potency [mmol/kg/day]
1 | Nc1ccc(-c2ccc(N)cc2)cc1 | 0.108
2 | O=C1c2cccc(O)c2C(=O)c2c(O)cccc21 | 0.837

Same assay, conditions: TD50_Mouse_Note: TD50 is harmonic mean of more than one positive test; TargetSites_Mouse_BothSexes: liver

Row | Structure (SMILES) | Potency [mmol/kg/day]
3 | ClC1=C(Cl)[C@]2(Cl)[C@@H]3[C@H]4C=CC(C4)[C@@H]3C1(Cl)C2(Cl)Cl | 0.00348

Same assay, conditions: TD50_Mouse_Note: TD50 is harmonic mean of more than one positive test; TargetSites_Mouse_Female: all tumor bearing animals

Row | Structure (SMILES) | Potency [mmol/kg/day]
4 | O=S(=O)(O)NC1CCCCC1 | 3.31

Same assay, conditions: TD50_Mouse_Note: TD50 is harmonic mean of more than one positive test; TargetSites_Mouse_Female: harderian gland; liver; vascular system

Row | Structure (SMILES) | Potency [mmol/kg/day]
5 | Nc1ccc(-c2ccc(N)cc2)cc1 | 0.0766

Same assay, conditions: TD50_Mouse_Note: TD50 is harmonic mean of more than one positive test; TargetSites_Mouse_Female: hematopoietic system; liver; vascular system

Row | Structure (SMILES) | Potency [mmol/kg/day]
6 | FC(F)=C(F)F | 0.719

Same assay, conditions: TD50_Mouse_Note: TD50 is harmonic mean of more than one positive test; TargetSites_Mouse_Female: hematopoietic system; lung

Row | Structure (SMILES) | Potency [mmol/kg/day]
7 | NNC(=O)c1ccccc1 | 0.0704

Same assay, conditions: TD50_Mouse_Note: TD50 is harmonic mean of more than one positive test; TargetSites_Mouse_Female: hematopoietic system; stomach

Row | Structure (SMILES) | Potency [mmol/kg/day]
8 | O=CNNc1nc(-c2ccc([N+](=O)[O-])o2)cs1 | 0.0425

Same assay, conditions: TD50_Mouse_Note: TD50 is harmonic mean of more than one positive test; TargetSites_Mouse_Female: kidney; stomach

Row | Structure (SMILES) | Potency [mmol/kg/day]
9 | O=C(O)/C=C/c1ccc(O)c(O)c1 | 27.2

Same assay, conditions: TD50_Mouse_Note: TD50 is harmonic mean of more than one positive test; TargetSites_Mouse_Female: liver

Row | Structure (SMILES) | Potency [mmol/kg/day]
10 | O=C1C2(Cl)C3(Cl)C4(Cl)C(Cl)(Cl)C5(Cl)C3(Cl)C1(Cl)C5(Cl)C24Cl (configuration not stated) | 0.002
11 | O=[N+]([O-])c1ccc2nc[nH]c2c1 | 2.28
12 | ClC=C(Cl)Cl | 2.61
13 | Clc1ccc(Cl)cc1 | 2.2

Same assay, conditions: TD50_Mouse_Note: TD50 is harmonic mean of more than one positive test; TargetSites_Mouse_Female: liver; lung

Row | Structure (SMILES) | Potency [mmol/kg/day]
14 | Cc1cc(C)c(N)cc1C | 0.265

Same assay, conditions: TD50_Mouse_Note: TD50 is harmonic mean of more than one positive test; TargetSites_Mouse_Female: liver; mammary gland

Row | Structure (SMILES) | Potency [mmol/kg/day]
15 | O=[N+]([O-])c1ccccc1 | 2.4

Same assay, conditions: TD50_Mouse_Note: TD50 is harmonic mean of more than one positive test; TargetSites_Mouse_Female: liver; thyroid gland

Row | Structure (SMILES) | Potency [mmol/kg/day]
16 | CN(C)CCOC(C)(c1ccccc1)c1ccccn1 (configuration not stated) | 0.538

Same assay, conditions: TD50_Mouse_Note: TD50 is harmonic mean of more than one positive test; TargetSites_Mouse_Female: liver; urinary bladder

Row | Structure (SMILES) | Potency [mmol/kg/day]
17 | COc1ccc(C)cc1N | 0.396

Same assay, conditions: TD50_Mouse_Note: TD50 is harmonic mean of more than one positive test; TargetSites_Mouse_Female: liver; vascular system

Row | Structure (SMILES) | Potency [mmol/kg/day]
18 | Nc1ccc2c(n1)[nH]c1ccccc12 | 0.272

Same assay, conditions: TD50_Mouse_Note: TD50 is harmonic mean of more than one positive test; TargetSites_Mouse_Female: mammary gland

Row | Structure (SMILES) | Potency [mmol/kg/day]
19 | COC1=CC(=O)C[C@@H](C)[C@]12Oc1c(Cl)c(OC)cc(OC)c1C2=O | 0.0391

Same assay, conditions: TD50_Mouse_Note: TD50 is harmonic mean of more than one positive test; TargetSites_Mouse_Female: stomach

Row | Structure (SMILES) | Potency [mmol/kg/day]
20 | NC(=O)CCCCn1ccc(NC(N)=NCC(F)(F)F)n1 | 1.84

Same assay, conditions: TD50_Mouse_Note: TD50 is harmonic mean of more than one positive test; TargetSites_Mouse_Female: vascular system

Row | Structure (SMILES) | Potency [mmol/kg/day]
21 | NNc1ccc(C(=O)O)cc1 | 2.97

Same assay, conditions: TD50_Mouse_Note: TD50 is harmonic mean of more than one positive test; greater than ten-fold variation among TD50 values for positive res; TargetSites_Mouse_Female: liver; lung

Row | Structure (SMILES) | Potency [mmol/kg/day]
22 | ClC=C(Cl)Cl | 12

Same assay, conditions: TD50_Mouse_Note: TD50 is harmonic mean of more than one positive test; greater than ten-fold variation among TD50 values for positive res; TargetSites_Mouse_Female: pituitary gland

Row | Structure (SMILES) | outcome
23 | C#C[C@]1(O)CC[C@H]2[C@@H]3CCC4=C(CCC(=O)C4)[C@H]3CC[C@@]21C | active; no positive results

Same assay, conditions: TD50_Mouse_Note: no positive results

Row | Structure (SMILES) | outcome
24 | CC12CCC(CC1)C(C)(C)O2 | inactive; no positive results
25 | C=C1CC[C@H](O)C/C1=C/C=C1\CCC[C@]2(C)[C@@H]([C@H](C)/C=C/[C@H](C)C(C)C)CC[C@@H]12 | inactive

Same assay, conditions: TD50_Mouse_Note: no positive results; TargetSites_Mouse_Female: no positive results

Row | Structure (SMILES) | outcome
26 | NNc1ccc(C(=O)O)cc1 | inactive
27 | S=c1[nH]c2ccccc2s1 | inactive; no positive results
28 | CN1CCC[C@H]1c1cccnc1 | inactive; no positive results
29 | S=C(SSSSSSC(=S)N1CCCCC1)N1CCCCC1 | inactive; no positive results
30 | [S-]c1nc2ccccc2s1.[S-]c1nc2ccccc2s1.[Zn+2] | inactive; no positive results
31 | CC(C)(C)NC[C@H](O)COc1cccc2c1CCCC2=O | inactive; no positive results
32 | CCN(Cc1cccc(S(=O)(=O)O)c1)c1ccc(C(=C2C=CC(=[N+](CC)Cc3cccc(S(=O)(=O)O)c3)C=C2)c2ccc(O)cc2S(=O)(=O)[O-])cc1 | inactive; no positive results
33 | CC(=O)C1C(=O)C=C(C)OC1=O (configuration not stated) | inactive; no positive results
34 | NC(=S)NNC(N)=S | inactive; no positive results
35 | Cc1ccc(N)cc1Cl | inactive; no positive results
36 | O.O.O.O.O.O.O=S(=O)([O-])[O-].[Ni+2] | inactive; no positive results
37 | CN(C)c1ccc(N=NS(=O)(=O)O)cc1 | inactive; no positive results
38 | O=C([O-])C(=O)O.O=C([O-])C(=O)O.[K+].[K+].[O]=[Ti] | inactive; no positive results
39 | CC1=C(C(=O)OC(C)C)C(c2cccc([N+](=O)[O-])c2)C(C(=O)OC2CN(C(c3ccccc3)c3ccccc3)C2)=C(N)N1 (configuration not stated) | inactive; no positive results
40 | NC(=O)c1ccncc1 | inactive; no positive results
41 | CCN(CC)C(=S)S[Te](SC(=S)N(CC)CC)(SC(=S)N(CC)CC)SC(=S)N(CC)CC | inactive; no positive results
42 | c1ccc2cc(Nc3ccc(Nc4ccc5ccccc5c4)cc3)ccc2c1 | inactive; no positive results
43 | Brc1c(Br)c(Br)c(Oc2c(Br)c(Br)c(Br)c(Br)c2Br)c(Br)c1Br | inactive; no positive results
44 | CC1(C)COC1=O | inactive; no positive results
45 | O=[N+]([O-])/C=C/c1ccccc1 | inactive; no positive results
46 | O=S(=O)([O-])[O-].[Cd+2] | inactive
47 | Cl[C@H]1OCCO[C@@H]1Cl | inactive
48 | CN1[C@@H]2CC(OC(=O)[C@@H](CO)c3ccccc3)C[C@H]1[C@@H]1O[C@@H]12 (some centres not stated) | inactive; no positive results
49 | CBr | inactive; no positive results

Row | Structure (SMILES) | outcome
50 | ClCOCCCCOCCl | inactive
51 | O=C1NS(=O)(=O)c2ccccc21 | inactive; no positive results
52 | CN(C)[C@@H]1C(=O)C(C(N)=O)=C(O)[C@@]2(O)C(=O)C3=C(O)c4c(O)cccc4[C@@](C)(O)[C@H]3[C@H](O)[C@@H]12 | inactive; no positive results
53 | CCCCCl | inactive; no positive results
54 | C/C=C/C(=O)Oc1c(C(C)CCCCCC)cc([N+](=O)[O-])cc1[N+](=O)[O-] (configuration not stated) | inactive; no positive results
55 | C=C(C)[C@H]1Cc2c(ccc3c2O[C@@H]2COc4cc(OC)c(OC)cc4[C@@H]2C3=O)O1 | inactive; no positive results
56 | COc1ccc([C@@H]2CC(=O)c3c(O)cc(O[C@@H]4O[C@H](CO[C@@H]5O[C@@H](C)[C@H](O)[C@@H](O)[C@H]5O)[C@@H](O)[C@H](O)[C@H]4O)cc3O2)cc1OC | inactive; no positive results
57 | Oc1ccccc1 | inactive; no positive results
58 | O=S(=O)(Oc1ccc(Cl)cc1)c1ccc(Cl)cc1 | inactive; no positive results
59 | Nc1ccc([N+](=O)[O-])cc1N | inactive; no positive results
60 | C#C[C@]1(O)CC[C@H]2[C@@H]3CCC4=C(CCC(=O)C4)[C@H]3CC[C@@]21C | inactive; no positive results
61 | OC(Cn1cncn1)(Cn1cncn1)c1ccc(F)cc1F | inactive; no positive results
62 | O=C1c2ccccc2C(=O)c2ccccc21 | inactive; no positive results
63 | c1ccc2c(c1)Oc1ccccc1O2 | inactive; no positive results
64 | C/C=C/c1ccc2c(c1)OCO2 | inactive; no positive results
65 | CN(C)C(=S)S | inactive; no positive results
66 | CCCCCCCCCCCCN=C(N)N | inactive; no positive results
67 | COc1cc2c(c3oc(=O)c4c(c13)CCC4=O)C1C=COC1O2 (configuration not stated) | inactive; no positive results
68 | O=C/C=C/c1ccccc1 | inactive; no positive results
69 | O=C(O)CCCC/C=C(\c1ccccc1)c1cccnc1 | inactive; no positive results
70 | FCC(F)(F)F | inactive; no positive results
71 | CN(C)C(=O)Nc1ccc(Cl)cc1 | inactive; no positive results
72 | CC(N)Cc1ccccc1 (configuration not stated) | inactive; no positive results

Same assay, conditions: TD50_Mouse_Note: positive test results only by intraperitoneal or intravenous injection; TD50 is harmonic mean of more than one positive; TargetSites_Mouse_Female: hematopoietic system; lung

Row | Structure (SMILES) | Potency [mmol/kg/day]
73 | O[C@@H]([C@H](O)[C@@H](O)CBr)[C@@H](O)CBr | 0.0484

Same assay, conditions: TD50_Mouse_Note: positive test results only by intraperitoneal or intravenous injection; TargetSites_Mouse_Female: peritoneal cavity

Row | Structure (SMILES) | Potency [mmol/kg/day]
74 | ClCOCc1ccc(COCCl)cc1 | 0.0132
75 | ClCOCCOCCl | 0.0291

Same assay, conditions: TargetSites_Mouse_BothSexes: no positive results

Row | Structure (SMILES) | outcome
76 | CCCCCCC(=O)/C=C/CCCCCCCCC(=O)OC | inactive
77 | C[C@H](CCC(=O)O)[C@H]1CC[C@H]2[C@@H]3[C@H](O)C[C@@H]4C[C@H](O)CC[C@]4(C)[C@H]3CC[C@]12C | inactive

Same assay, conditions: TargetSites_Mouse_Female: hematopoietic system

Row | Structure (SMILES) | Potency [mmol/kg/day]
78 | NNc1nc(-c2ccc([N+](=O)[O-])cc2)cs1 | 0.0449

Same assay, conditions: TargetSites_Mouse_Female: liver

Row | Structure (SMILES) | Potency [mmol/kg/day]
79 | O=C/C=C/O | 0.15
80 | O=C1NC(=O)C(c2ccccc2)(c2ccccc2)N1 | 0.234
81 | Cc1cc(C)c(N)cc1C | 0.0453

Same assay, conditions: TargetSites_Mouse_Female: no positive results

Row | Structure (SMILES) | Potency [mmol/kg/day]
82 | O=CCCl | 0.46
